For the assay, the target named is T1, MRGPRX2 (Mas-related G protein-coupled receptor X2) (Homo sapiens, UniProt Q96LB1).
T1 sequence (Q96LB1 1-330): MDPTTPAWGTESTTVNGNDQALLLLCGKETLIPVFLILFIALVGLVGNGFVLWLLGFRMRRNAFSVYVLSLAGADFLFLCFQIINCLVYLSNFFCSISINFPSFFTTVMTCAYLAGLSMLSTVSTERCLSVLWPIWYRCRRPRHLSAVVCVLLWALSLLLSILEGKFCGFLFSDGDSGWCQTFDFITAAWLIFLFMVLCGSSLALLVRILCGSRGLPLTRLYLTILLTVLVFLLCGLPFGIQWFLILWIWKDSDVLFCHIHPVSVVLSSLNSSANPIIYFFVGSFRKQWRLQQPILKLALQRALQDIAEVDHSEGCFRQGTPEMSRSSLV
Nature of the assay: Fluo-4 calcium flux assay in MRGPRX2-transfected HEK-293 cells, antagonism of LL-37. Format: cell-based. A general note: Calcium assays in cells follow changes in intracellular calcium, usually with a dye or a luminescent sensor.

Drawing on publication PMC12657586, “Therapeutic effect of an MRGPRX2/MRGPRB2 antagonist on LL-37-induced rosacea-like inflammation in mice” (Inflammation Research, 2025), this text covers IC50 for 1 compound.

The term IC50 denotes the concentration that inhibits the measured activity by half.

In the case of `COC(=O)c1cc2cc(NC(N)=O)ccc2cc1-c1cc2c3c(c(O)ccc3c1)C(C)C(C=O)=C2` (stereo not shown) [GE1111], the 50% inhibitory concentration (IC50) was determined as 12.3 µM.
